Tested on: P. aeruginosa, PAM1723, overexpressing the MexAB-OprM efflux pump
Format: cell-based, Pseudomonas aeruginosa
Conditions: lowest EPI concentration giving antibacterial activity with levofloxacin at 1/8 of its MIC, MHB, 20 h at 35° C.
Protocol: All EPI compounds were readily soluble in water and stock solutions were prepared at a final concentration of 10 mg/ml. Stock solutions were further diluted, according to the needs of the particular assay, in Mueller Hinton Broth (MHB). Stock solution was stored at […].
The checkerboard assay was performed in microtiter plates. […] EPIs were diluted in the y-axis, each row containing a single concentration of an EPI. […] The assay was performed in MHB with a final bacterial inoculum of 5 times 10^5 CFU/ml (from an early-log phase culture). Microtiter plates were incubated during 20 h at 35° C. and were read using a microtiter plate reader (Molecular Devices) at 650 nm as well as visual observation using a microtiter plate-reading mirror.

Q: `CC1(C)OB(O)c2cc(NC(=O)[C@@H](Cc3ccc(C(F)(F)F)cc3)NC(=O)[C@@H](N)CCC(=O)N3C[C@H](N)C[C@H](N)C3)ccc21` [Compound 67, (S)-2-amino-5-((3R,5S)-3,5-diaminopiperidin-1-yl)-N-((R)-1-(1-hydroxy-3,3-dimethyl-1,3-dihydrobenzo[c][1,2]oxaborol-6-ylamino)-1-oxo-3-(4-(trifluoromethyl)phenyl)propan-2-yl)-5-oxopentanamide] was tested. Which “MPC8 (Minimum Potentiating Concentration)” value (“MPC8” for short) did it give?
A: The value was “B (B = MPC8 of 2.5 μg/ml to less than 10 μg/mL.)”.

Q: For `CC1(C)OB(O)c2cc(NC(=O)[C@@H](Cc3ccc(C(F)(F)F)cc3)NC(=O)[C@@H](N)CCC(=O)N3C[C@@H](N)C[C@H](N)C3)ccc21` [Compound 74, (S)-2-amino-5-((3S,5S)-3,5-diaminopiperidin-1-yl)-N-((R)-1-(1-hydroxy-3,3-dimethyl-1,3-dihydrobenzo[c][1,2]oxaborol-6-ylamino)-1-oxo-3-(4-(trifluoromethyl)phenyl)propan-2-yl)-5-oxopentanamide], which “MPC8” value is on record?
A: The value was “B (B = MPC8 of 2.5 μg/ml to less than 10 μg/mL.)”.

Q: For `CC1(C)OB(O)c2cc(NC(=O)[C@@H](Cc3ccc(C(F)(F)F)cc3)NC(=O)[C@@H](N)CCC(=O)N3C[C@@H](N)C[C@H]3CN)ccc21` [Compound 75, (S)-2-amino-5-((2S,4S)-4-amino-2-(aminomethyl)pyrrolidin-1-yl)-N-((R)-1-(1-hydroxy-3,3-dimethyl-1,3-dihydrobenzo[c][1,2]oxaborol-6-ylamino)-1-oxo-3-(4-(trifluoromethyl)phenyl)propan-2-yl)-5-oxopentanamide], which “MPC8” value is on record?
A: The value was “B (B = MPC8 of 2.5 μg/ml to less than 10 μg/mL.)”.

Q: For `CC(C)c1ccc(C[C@@H](NC(=O)[C@@H](N)CCC(=O)N(CCN)CCN)C(=O)Nc2ccc3c(c2)B(O)OC3(C)C)cc1` [Compound 78, (S)-2-amino-N5,N5-bis(2-aminoethyl)-N^1-((R)-1-(1-hydroxy-3,3-dimethyl-1,3-dihydrobenzo[c][1,2]oxaborol-6-ylamino)-3-(4-isopropylphenyl)-1-oxopropan-2-yl)pentanediamide], which “MPC8” value is on record?
A: Its value is “A (A = MPC8 of less than 2.5 μg/mL.)”.

Q: Which “MPC8” value does the source give for `CC1(C)OB(O)c2ccc(NC(=O)[C@@H](Cc3ccc(C(F)(F)F)cc3)NC(=O)[C@@H](N)CCC(=O)N(CCN)CCN)cc21` [Compound 84, (S)-2-amino-N^5,N^5-bis(2-aminoethyl)-N^1-((R)-1-(1-hydroxy-3,3-dimethyl-1,3-dihydrobenzo[c][1,2]oxaborol-5-ylamino)-1-oxo-3-(4-(trifluoromethyl)phenyl)propan-2-yl)pentanediamide] here?
A: Its value is “B (B = MPC8 of 2.5 μg/ml to less than 10 μg/mL.)”.

Q: How did the “MPC8” value turn out when `CC1(C)OB(O)c2ccc(CNC(=O)[C@@H](Cc3ccc(C(F)(F)F)cc3)NC(=O)[C@@H](N)CCC(=O)N(CCN)CCN)cc21` [Compound 90, (S)-2-amino-N^5,N^5-bis(2-aminoethyl)-N^1-((R)-1-((1-hydroxy-3,3-dimethyl-1,3-dihydrobenzo[c][1,2]oxaborol-5-yl)methylamino)-1-oxo-3-(4-(trifluoromethyl)phenyl)propan-2-yl)pentanediamide] was run?
A: Its value is “B (B = MPC8 of 2.5 μg/ml to less than 10 μg/mL.)”.

Q: With `CC1(C)OB(O)c2ccc(CNC(=O)[C@@H](CCc3ccc(C(F)(F)F)cc3)NC(=O)[C@@H](N)CCC(=O)N(CCN)CCN)cc21` [Compound 93, (S)-2-amino-N^5,N^5-bis(2-aminoethyl)-N^1-((R)-1-((1-hydroxy-3,3-dimethyl-1,3-dihydrobenzo[c][1,2]oxaborol-5-yl)methylamino)-1-oxo-4-(4-(trifluoromethyl)phenyl)butan-2-yl)pentanediamide] as the compound, how does the “MPC8” value read?
A: The value was “B (B = MPC8 of 2.5 μg/ml to less than 10 μg/mL.)”.

Q: How did the “MPC8” value turn out when `CC1(C)OB(O)c2ccc(NC(=O)[C@@H](CCc3ccc(C(F)(F)F)cc3)NC(=O)[C@@H](N)CCC(=O)N(CCN)CCN)cc21` [Compound 94, (S)-2-amino-N^5,N^5-bis(2-aminoethyl)-N^1-((R)-1-(1-hydroxy-3,3-dimethyl-1,3-dihydrobenzo[c][1,2]oxaborol-5-ylamino)-1-oxo-4-(4-(trifluoromethyl)phenyl)butan-2-yl)pentanediamide] was run?
A: Its value is “A (A = MPC8 of less than 2.5 μg/mL.)”.

Q: Which “MPC8” value does the source give for `CC1(C)OB(O)c2ccc(NC(=O)[C@@H](Cc3ccc(C(F)(F)F)cc3)NC(=O)[C@@H](N)CCC(=O)NC(CN)CN)cc21` [Compound 95, (S)-2-amino-N^5-(1,3-diaminopropan-2-yl)-N^1-((R)-1-(1-hydroxy-3,3-dimethyl-1,3-dihydrobenzo[c][1,2]oxaborol-5-ylamino)-1-oxo-3-(4-(trifluoromethyl)phenyl)propan-2-yl)pentanediamide] here?
A: The value was “B (B = MPC8 of 2.5 μg/ml to less than 10 μg/mL.)”.

Q: `CC1(C)OB(O)c2ccc(NC(=O)[C@@H](CCc3ccc(C(F)(F)F)cc3)NC(=O)[C@@H](N)CCC(=O)NC(CN)CN)cc21` [Compound 96, (S)-2-amino-N^5-(1,3-diaminopropan-2-yl)-N^1-((R)-1-(1-hydroxy-3,3-dimethyl-1,3-dihydrobenzo[c][1,2]oxaborol-5-ylamino)-1-oxo-4-(4-(trifluoromethyl)phenyl)butan-2-yl)pentanediamide] was tested. Which “MPC8” value did it give?
A: The value was “A (A = MPC8 of less than 2.5 μg/mL.)”.

Q: With `CC1(C)OB(O)c2ccc(NC(=O)[C@@H](COc3ccc(C(F)(F)F)cc3)NC(=O)[C@@H](N)CCC(=O)NC(CN)CN)cc21` [Compound 97, (S)-2-amino-N^5-(1,3-diaminopropan-2-yl)-N^1-((R)-1-(1-hydroxy-3,3-dimethyl-1,3-dihydrobenzo[c][1,2]oxaborol-5-ylamino)-1-oxo-3-(4-(trifluoromethyl)phenoxy)propan-2-yl)pentanediamide] as the compound, how does the “MPC8” value read?
A: The value was “B (B = MPC8 of 2.5 μg/ml to less than 10 μg/mL.)”.

Q: For `CC1(C)OB(O)c2ccc(NC(=O)[C@@H](CSc3ccc(C(F)(F)F)cc3)NC(=O)[C@@H](N)CCC(=O)NC(CN)CN)cc21` [Compound 98, (S)-2-amino-N^5-(1,3-diaminopropan-2-yl)-N^1-((S)-1-(1-hydroxy-3,3-dimethyl-1,3-dihydrobenzo[c][1,2]oxaborol-5-ylamino)-1-oxo-3-(4-(trifluoromethyl)phenylthio)propan-2-yl)pentanediamide], which “MPC8” value is on record?
A: The value was “B (B = MPC8 of 2.5 μg/ml to less than 10 μg/mL.)”.

Q: For `CC1(C)OB(O)c2c(NC(=O)[C@@H](Cc3ccc(C(F)(F)F)cc3)NC(=O)[C@@H](N)CCC(=O)N(CCN)CCN)cccc21` [Compound 101, (S)-2-amino-N^5,N^5-bis(2-aminoethyl)-N^1-((R)-1-(1-hydroxy-3,3-dimethyl-1,3-dihydrobenzo[c][1,2]oxaborol-7-ylamino)-1-oxo-3-(4-(trifluoromethyl)phenyl)propan-2-yl)pentanediamide], which “MPC8” value is on record?
A: Its value is “B (B = MPC8 of 2.5 μg/ml to less than 10 μg/mL.)”.

Q: Which “MPC8” value does the source give for `CC1(C)OB(O)c2c(NC(=O)[C@@H](CCc3ccc(C(F)(F)F)cc3)NC(=O)[C@@H](N)CCC(=O)N(CCN)CCN)cccc21` [Compound 102, (S)-2-amino-N^5,N^5-bis(2-aminoethyl)-N^1-((R)-1-(1-hydroxy-3,3-dimethyl-1,3-dihydrobenzo[c][1,2]oxaborol-7-ylamino)-1-oxo-4-(4-(trifluoromethyl)phenyl)butan-2-yl)pentanediamide] here?
A: Its value is “B (B = MPC8 of 2.5 μg/ml to less than 10 μg/mL.)”.
